In brackets after ≈: the same amount, converted by molar mass. Some results are limits rather than exact numbers.

For this data set the following is noted: buffer; pH 7.4; 200.0 µM.
The term kinetic solubility denotes solubility judged after dilution from a stock solution rather than from solid. As to `Cc1cccc(C(C)C)c1NC(=O)c1ccc(OCC2CCCO2)cc1` (stereo not drawn), the kinetic solubility is 12.1 µg/mL (≈ 34.2 µM). `CCOCCc1c(O)nc(SCC)[nH]c1=O` gave a solubility (kinetic) of more than 36.6 µg/mL. Compound `O=[N+]([O-])c1cc(NCCO)c(N2CCCCCC2)c2nonc12` showed a kinetic solubility of 42.3 µg/mL (≈ 132 µM). For `O=c1c2[nH]c3cccc(Cl)c3c2ncn1CC1CCCO1` (stereo not drawn), the kinetic solubility is 7.4 µg/mL (≈ 24.4 µM). Compound `COC(=O)c1sc(-c2ccccc2)cc1NC(=O)C1CC1` showed a solubility (kinetic) of 0.7 µg/mL (≈ 2.32 µM). Regarding `C=CCn1c(SCC(=O)N(C)C)nc2cc(C(=O)O)ccc2c1=O`, the solubility (kinetic) was more than 52.1 µg/mL. The result for `COc1ccc(C(=O)Nc2ccccc2C(=O)N2CCOCC2)cc1` reads more than 51.1 µg/mL; that for `CC(=O)NC(CC(=O)N1CCCC1)c1ccccc1` (stereo not drawn), more than 39.1 µg/mL; that for `CC(=O)O.O=S(=O)(CCc1ccncc1)C1Cc2cccc3cccc1c23` (stereo not drawn), 49.4 µg/mL. Compound `CCOc1ccccc1NC(=O)C(=O)CC(=O)c1cccc(OC)c1` had a solubility (kinetic) of 9.6 µg/mL (≈ 28.1 µM). In turn, `CCOc1ccccc1CNC(c1ccccc1)c1ccccc1.Cl` returned a kinetic solubility of 1.4 µg/mL. The result for `C(=N\Nc1ccccn1)/c1cccnc1` reads more than 29.7 µg/mL; that for `CCOC(=O)CSCc1csc(CC(=O)Nc2ccccc2C)n1`, 52.4 µg/mL (≈ 144 µM). Compound `CC(=O)Nc1ccc(S(=O)(=O)Nc2nc3ccccc3nc2N2CCOCC2)cc1` returned a solubility (kinetic) of more than 64.1 µg/mL. The result for `Cc1cc(NC(=O)c2cccc(S(=O)(=O)Nc3cccc(C(=O)O)c3)c2)no1` reads more than 60.2 µg/mL; that for `CC(=O)/C=C(\C)Nc1c(C)n(C)n(-c2ccccc2)c1=O`, more than 42.8 µg/mL; that for `Cc1ccc(NCC(=O)N/N=C/c2ccc(C(=O)O)cc2)cc1`, more than 46.7 µg/mL.

The compound `N#Cc1ccc(S(=O)(=O)Nc2ccccc2N2CCOCC2)cc1` yielded a solubility (kinetic) of more than 51.5 µg/mL.

Compound `CCOc1ccc(NC(=O)NC2CCCCCCC2)cc1` yielded a kinetic solubility of 0.9 µg/mL (≈ 3.1 µM). `COc1ccc(C2NC(=O)NC3=C2C(=O)CCC3)cc1` (stereo not drawn) came in with a kinetic solubility of more than 40.8 µg/mL. Turning to `C=CCOC(=O)C1=C(C)NC(=O)NC1c1ccc(O)cc1` (stereo not drawn), the kinetic solubility is more than 43.2 µg/mL. The result for `COc1c(Cl)cc(Cl)cc1C(=O)Nc1ccc(CN2CCOCC2)cc1` reads 2.6 µg/mL (≈ 6.58 µM); that for `Cc1[nH]c(SCC(=O)Nc2cc(C(N)=O)cc(C(N)=O)c2)nc1Cc1ccccc1`, more than 63.5 µg/mL. `Cc1ccc(N2C(=O)C(Cl)=C(N3CCCCCC3)C2=O)cc1` registered a solubility (kinetic) of 10.6 µg/mL (≈ 33.2 µM). To `Nc1ccc(Cl)c(S(=O)(=O)Nc2cccc(Cl)c2)c1` belongs 43.4 µg/mL (≈ 137 µM); to `CCCNC(=O)Nc1cc(S(=O)(=O)CC)ccc1O`, 37.9 µg/mL (≈ 132 µM).

Compound `Cc1cc(C(=O)Nc2ccc(C(=O)O)cc2)c(C)o1` displayed a kinetic solubility of more than 38.9 µg/mL. As for `O=C(CCc1ccccc1)Nc1cc2c3c(c1)CCC(=O)N3CCC2`, the kinetic solubility came out at 40.3 µg/mL (≈ 121 µM). Take `O=C(Oc1ccc(Cl)c(Cl)c1)C1=CC=CN2CCS(=O)(=O)N=C12`: the kinetic solubility is 19.7 µg/mL (≈ 52.8 µM). As for `O=C(Nc1ccccc1Br)C1CCN(S(=O)(=O)c2cccs2)CC1`, the kinetic solubility was found to be 7.8 µg/mL (≈ 18.2 µM).

Regarding `Cc1cnc(C(=O)OCC(=O)c2ccc(-c3ccccc3)cc2)cn1`, the solubility (kinetic) worked out at 7.7 µg/mL (≈ 23.2 µM). The result for `CN(C)C(=O)c1c(NC(=O)c2ccccc2)sc2c1CCC2` reads 42.9 µg/mL (≈ 136 µM). `COc1cccc(CNC(=O)N2CCN(c3ccccc3C)CC2)c1` displayed a solubility (kinetic) of 15.3 µg/mL (≈ 45.1 µM).

The compound `Cc1nc([N+](=O)[O-])c(C(=O)O)n1C` yielded a kinetic solubility of more than 27.8 µg/mL. For the compound `COc1ccc(/C=C/C(=O)O)cc1S(=O)(=O)N1CCC(Cc2ccccc2)CC1`, the solubility (kinetic) is 61.6 µg/mL (≈ 148 µM). The result for `COC(=O)c1ccc(OCC(=O)NC2CCCCCC2)cc1` reads more than 45.8 µg/mL. The compound `COc1ccc(/C=C2\N=C(C)OC2=O)cc1OC(C)=O` showed a kinetic solubility of more than 41.3 µg/mL. `COc1ccccc1-n1cnc2cc(NCc3ccccc3O)ccc21` displayed a kinetic solubility of 12.6 µg/mL (≈ 36.5 µM).

`CCCC12CN3CC(CCC)(CN(C1)C3c1ccco1)C2=O` (stereo not drawn) gave a kinetic solubility of more than 45.4 µg/mL.

`COC(=O)Cn1cc(C(=O)C(C)(C)C)c2ccccc21` showed a kinetic solubility of 37.1 µg/mL (≈ 136 µM). `Clc1cc(Cl)cc(Nc2ncnc(-n3cccc3)n2)c1` showed a solubility (kinetic) of less than 0.1 µg/mL. To `CC(=O)c1ccc(NC(=O)Nc2ccncc2)cc1` belongs more than 38.3 µg/mL; to `CCCOCc1ccc(O)c2ncccc12`, 19.6 µg/mL (≈ 90.2 µM).

`CCCCN(Cc1ccccc1)C1CCN(Cc2ccccc2)CC1` came in with a solubility (kinetic) of 27.3 µg/mL (≈ 81.1 µM). In turn, `COc1ccc(OC2CCN(S(=O)(=O)c3ccccc3)CC2)cc1` came in with a solubility (kinetic) of 4.8 µg/mL (≈ 13.8 µM).

Consider `O=C1CN(C(=O)/C=C/c2cc(Br)ccc2F)CCN1`, for which the kinetic solubility is more than 49.1 µg/mL. In turn, `O=C(NC1CCCCC1)C1CC(=O)N(c2cccc([N+](=O)[O-])c2)C1` (stereo not drawn) showed a solubility (kinetic) of 7.8 µg/mL (≈ 23.5 µM). In turn, `COc1ccc(C)cc1S(=O)(=O)N1CC(C)OC(C)C1` (stereo not drawn) gave a solubility (kinetic) of more than 44.9 µg/mL.

In the case of `Cc1ccccc1C(=O)NC(=S)Nc1ncccn1`, the solubility (kinetic) was determined as 15.6 µg/mL (≈ 57.3 µM). In turn, `CC(=O)Cc1nsc(NC(=O)c2ccc(Cl)cc2Cl)n1` registered a kinetic solubility of more than 49.5 µg/mL.

Take `O=C(O)/C=C/C(=O)Nc1ccc(OCc2ccccc2)cc1`: the kinetic solubility is more than 44.6 µg/mL. Take `O=C(CN1CCCC1)Nc1ccc([N+](=O)[O-])cc1Cl`: the kinetic solubility amounted to 36.2 µg/mL (≈ 128 µM).

In turn, `Cc1ccc2ncnc(Oc3ncccc3[N+](=O)[O-])c2c1` returned a solubility (kinetic) of 34.7 µg/mL (≈ 123 µM). The result for `CCCCCC1C/C(=N\O)C=C(C)C1C(=O)OC` (stereo not drawn) reads more than 38 µg/mL; that for `NC(=O)Cn1ccc(O)c(Cc2ccc(Cl)cc2Cl)c1=O`, more than 49.1 µg/mL. Take `COc1ccc(S(=O)(=O)N2CCN(c3ccccn3)CC2)cc1[N+](=O)[O-]`: the kinetic solubility is 5.8 µg/mL (≈ 15.3 µM). `Cc1ccc(NC(=O)Nc2cccc3ccccc23)cc1` registered a solubility (kinetic) of less than 0.3 µg/mL. To `CCC1CCC/C1=N\NC(=O)c1ccoc1C` (stereo not drawn) belongs more than 35.1 µg/mL; to `Cc1ccc(OCC(=O)NC(=S)Nc2ccc(Br)cn2)cc1`, 0.5 µg/mL (≈ 1.31 µM); to `CCOc1ccc(NC(=O)/C(C=Nc2ccccc2)=C(\C)O)cc1`, 1 µg/mL (≈ 3.08 µM).

`Cc1ccc(NC(=O)CN(C)Cc2ccc(Cl)cc2)cc1` registered a solubility (kinetic) of 20.6 µg/mL (≈ 68 µM).

The compound `Cc1ccc(Nc2c(-c3ccc(N(C)C)cc3)nc3ncccn23)cc1` came in with a kinetic solubility of 1 µg/mL (≈ 2.91 µM). As to `Oc1ccc(N=Cc2c(O)ccc3ccccc23)cc1`, the solubility (kinetic) is less than 0.6 µg/mL. `C=C(C)CNC(=S)Nc1cccc(N)n1` displayed a solubility (kinetic) of more than 33.3 µg/mL.

As for `COC1C(C)=C(C)C(=O)N1Cc1ccccc1` (stereo not drawn), the solubility (kinetic) came to 33.9 µg/mL (≈ 147 µM). As for `COc1cccc(CNC(=O)Cn2nc(C)c([N+](=O)[O-])c2C)c1`, the solubility (kinetic) is more than 47.7 µg/mL. Take `NS(=O)(=O)c1cccc(NC(=O)CSc2nnc(-c3ccccc3)o2)c1`: the kinetic solubility was more than 58.6 µg/mL.

Regarding `O=C(COc1ccccc1Cl)N1CCc2ccccc21`, the kinetic solubility worked out at 1.1 µg/mL (≈ 3.82 µM). `O=c1[nH]cnc2ccc([N+](=O)[O-])cc12` returned a kinetic solubility of more than 28.7 µg/mL. With `CNc1ccc([N+](=O)[O-])cc1-c1nc2ccccc2[nH]c1=O`, the solubility (kinetic) is 0.2 µg/mL (≈ 0.675 µM). Consider `Cc1cccc(NC(=S)NC(=O)c2oc3ccccc3c2C)n1`, for which the solubility (kinetic) was less than 0.2 µg/mL. To `O=C(CN1CCCCCCC1)Nc1cccc(Cl)c1Cl` belongs less than 0.3 µg/mL; to `CCC(C(=O)Nc1ncc(C)s1)c1ccccc1` (stereo not drawn), 2.9 µg/mL (≈ 11.1 µM). In the case of `O=C1Cc2ccccc2C(=O)N1c1ccccc1`, the solubility (kinetic) stood at 35.1 µg/mL (≈ 148 µM). The compound `CCCCCC(=O)OC(CN1CCCC1=O)C[NH+]1CCCCCC1.[Cl-]` (stereo not drawn) showed a solubility (kinetic) of more than 56.2 µg/mL.

Turning to `Cc1nc(SCC(=O)Nc2ccccc2Cl)c2c(C)c(C)sc2n1`, the solubility (kinetic) stood at 3.9 µg/mL (≈ 10.3 µM). Turning to `Nc1ccc(N2CCN(c3ccccc3)CC2)c(F)c1`, the solubility (kinetic) is more than 40.7 µg/mL.

In turn, `Cc1ccc(C(=O)Nc2cc(C)nn2CCC#N)cc1` had a kinetic solubility of more than 40.2 µg/mL. `CC1CN(c2ccc([N+](=O)[O-])c(N3CCCCC3)c2)CCN1` (stereo not drawn) displayed a solubility (kinetic) of 42.4 µg/mL (≈ 139 µM). Regarding `C[n+]1c(-c2ccccc2)sc([S-])c1-c1ccccc1`, the kinetic solubility was 36 µg/mL (≈ 127 µM). Compound `CCOc1ccc(NCc2cc3cc(OC)ccc3[nH]c2=O)cc1` returned a kinetic solubility of 2.1 µg/mL (≈ 6.47 µM). The compound `CCN(CC(=O)NC(=O)NC1CCCC1)Cc1ccccc1` had a solubility (kinetic) of more than 45.5 µg/mL. In the case of `CC(=O)c1cccc(NC(=O)/C=C/c2ccc(S(=O)(=O)N3CCOCC3)cc2)c1`, the solubility (kinetic) is 5.1 µg/mL (≈ 12.3 µM).

In turn, `COc1cc(C(=O)NCCSc2ccccc2)cc(OC)c1OC` had a solubility (kinetic) of 49.9 µg/mL (≈ 144 µM).

`Cc1cc(C)n2nc(SCC(=O)NC3CCCCC3)nc2n1` had a kinetic solubility of more than 47.9 µg/mL.

Regarding `COc1ccc(CCn2c([S-])nc3ccccc3c2=O)cc1.[Na+]`, the kinetic solubility was 1.5 µg/mL. On to `CCC(CO)N=CC1=C(O)CC(c2ccccc2)CC1=O` (stereo not drawn), for which the kinetic solubility is more than 43.1 µg/mL. The compound `Cc1cc(C)c(S(=O)(=O)c2ccc(Cl)cc2)c(=O)[nH]1` displayed a solubility (kinetic) of 19.8 µg/mL (≈ 66.5 µM). On to `CCC(CC)C(=O)c1c[nH]c(C(=O)NCc2ccncc2)c1`, for which the solubility (kinetic) was 44.2 µg/mL (≈ 148 µM). Compound `CCCCNC(=O)c1cc(-c2ccc3c(c2)OCO3)on1` registered a solubility (kinetic) of 0.3 µg/mL (≈ 1.04 µM). The result for `O=C1CCC([N+](=O)[O-])C(C2CC=CCC2)N1` (stereo not drawn) reads more than 33.6 µg/mL; that for `COc1ccc(C(C)=O)cc1CN1C(=O)NC2(CCCC2)C1=O`, 44.9 µg/mL (≈ 142 µM).

The compound `CC(C)(C)c1cc(CCC(=O)N2CCC2)cc(C(C)(C)C)c1O` returned a kinetic solubility of 42.6 µg/mL (≈ 134 µM). With `Cc1ccc2c(CN(C)Cc3ccccc3)cc(=O)oc2c1C`, the kinetic solubility stood at 1.7 µg/mL (≈ 5.53 µM). `C=CCN1C(=O)C2(OCCCO2)c2cccc(Cl)c21` returned a solubility (kinetic) of 15.1 µg/mL (≈ 54 µM). The compound `Cc1cc(=O)n(Cc2ccc(OC(C)C)cc2)c(=S)[nH]1` registered a kinetic solubility of 13.8 µg/mL (≈ 47.5 µM). `CCOC1(/N=C(\C)NS(=O)(=O)c2ccc(Cl)cc2)C(C)=CC(=O)C=C1C`: the kinetic solubility is more than 59.5 µg/mL.

For `OC(CNCc1ccccc1)(c1ccccc1)c1ccccc1`, the kinetic solubility was more than 45.5 µg/mL.

`Cc1cccc(NCc2cccc3ccccc23)n1` displayed a kinetic solubility of 9.8 µg/mL (≈ 39.5 µM).

`S=C(NCCCN1CCOCC1)NC1CC1` came in with a solubility (kinetic) of more than 36.5 µg/mL.

The compound `CCCc1cc(=O)[nH]c(Nc2ccc(Cl)cc2)n1` displayed a solubility (kinetic) of 4.4 µg/mL (≈ 16.7 µM).

`O=C(NC1CCCCC1)c1ccc2c(c1)OCCO2` displayed a kinetic solubility of 34.8 µg/mL (≈ 133 µM). In turn, `Cc1onc(-c2ccccc2)c1C(=O)N=C(N)c1ccc(Cl)cc1` had a solubility (kinetic) of 1.1 µg/mL (≈ 3.24 µM).
